# Assays:
# Type in all cases: cell-based, human
# [1] = test system: H3K9me3 in HMLE-TWIST cells; experiment: H3K9me3 chromatin immunoprecipitation and deep sequencing
# Experimental: FIG. 11 is a meta-plot depicting the H3K9me3 peaks in HMLE-TWIST cells treated (right graph) with 0.3 μM of chaetocin for 15 hours versus untreated cells (left graph). […] The decrease in red and yellow color and an increase in blue color is consistent with chaetocin-induced inhibition of Suv39H1 and Suv39H2 activities resulting in a decrease in H3K9me3 throughout the chaetocin-treated HMLE-TWIST cells.
# Chaetocin is an inhibitor of Suv39H1 and Suv39H2 enzymes, whose catalytic activities trimethylates lysine 9 of histone H3. […] Consistent with our model, we find that genes involved in cell-cell adhesion (a strong marker for epithelial cells) display a specific loss of H3K9me3 in response to chaetocin treatment (Table 6). We also find that genes involved in neural differentiation also lose H3K9me3. […] Moreover, 60 genes display a simultaneous loss of H3K9me3 and an increase in their expression in chaetocin-treated cells (Table 7).
# MDA-MB-468 cells = experiment: Cleaved caspase 3 apoptosis assay; settings: chaetocin 0, 400, 800 nM; compared with MDA-MB-231
# From the text: (§1) FIGS. 1A-1K are a series of figures showing sensitivity of tumor initiating cell (TICs)-rich, chemoresistant breast cancer and clear cell renal cell carcinoma cell lines to chaetocin compared to non-cancerous epithelial or isogenic cancerous epithelial, TIC-deplete, chemosensitive breast cancer and clear cell renal cell carcinoma cell lines. […] The data presented in FIGS. 1A and 1B indicate that at lower doses especially chaetocin specifically induces apoptosis of mesenchymal, TIC-rich, chemotherapy-resistant breast cancer cell lines compared to the epithelial, non-TIC-rich and chemotherapy-responsive cell-line.
# (§2) To determine whether constitutive heterochromatin proteins are similarly required for the development of […] in cancer, the efficacy of a heterochromatin inhibitor, which selectively represses the activities of two proteins critical for constitutive heterochromatin formation, namely suppressor of variegation 3-9 homolog 1 (Suv39H1) and suppressor of variegation 3-9 homolog 2 (Suv39H2), was tested in human cells, using 2-D, spheroid and tumorsphere assays. To determine the sensitivity of well-established mesenchymal and epithelial cancer cells to a heterochromatin inhibitor, chaetocin, the degree of apoptotic cell death was measured in two cancer cell lines, MDA-MB-231 and MDA-MB-468. […]
# MDA-MB-231 cells = experiment: Cleaved caspase 3 apoptosis assay; settings: chaetocin 0, 100, 200 nM; compared with MDA-MB-468
# From the text: as §1, §2
# HMLE-SNAIL cells = experiment: CD44/CD24 FACS analysis; settings: 1 μM for two days
# From the text: The y- and the x-axes represent fluorescence intensity of CD24 and CD44 cell surface markers, respectively. In this cell line, high CD44 and low CD24 expression indicate TIC cell populations. Cells that express CD24 are considered non-TICs.
# Cell surface markers can be used to identify mesenchymal, TIC cells. In breast cancer, the presence of CD44 and absence of CD24 markers are indicators of TICs. Specifically, cells expressing high levels of CD44 and no expression of CD24 are considered TICs, whereas cells expressing CD24 are considered non-TICs. HMLE cells display these cell surface markers upon overexpression of SNAIL or TWIST, which turns on the EMT transcriptional program and promotes a mesenchymal TIC state in cancer cells. To determine whether chaetocin treatment alters the mesenchymal phenotype of TICs, these markers were used to track the fate of HMLE-SNAIL cells following chaetocin treatment (1 μM) using fluorescence-activated cell sorting (FACS) analysis. FIGS. 3A-3B show a heat map plot of FACS results under control conditions (FIG. 3A) and following chaetocin treatment (FIG. 3B). The y-axis corresponds to CD24 fluorescence intensity and the x-axis corresponds to CD44 fluorescence intensity.
# [2] = 0.3 uM for 15 hours, Gene Ontology Biological Process
smiles,measurement,setting,value
CN1C(=O)[C@@]23C[C@]4([C@]56C[C@@]78SS[C@](CO)(C(=O)N7[C@H]5Nc5ccccc56)N(C)C8=O)c5ccccc5N[C@@H]4N2C(=O)[C@@]1(CO)SS3 [chaetocin],change in H3K9me3 profile,[1]; 0.3 μM for 15 hours versus untreated,specific loss of H3K9me3 over epithelial genes
same,number of genes with simultaneous loss of H3K9me3 and increase in expression,"[1]; 0.3 μM for 15 hours, ChIP-seq with RNA-seq",60 genes
same,Fold Enrichment of cell-cell adhesion among genes which lose H3K9me3,[1]; [2],2.49
same,Fold Enrichment of neuron differentiation among genes which lose H3K9me3,[1]; [2],2.12
same,apoptosis (cleaved caspase 3) sensitivity,MDA-MB-468 cells,increased sensitivity to chaetocin as compared to MDA-MB-231 cells
same,apoptosis (cleaved caspase 3) sensitivity,MDA-MB-231 cells,"more sensitive to chaetocin compared to the non-TIC, MDA-MB-468 cells"
same,CD44/CD24 phenotype (TIC to non-TIC),HMLE-SNAIL cells,reprograms TICs into a non-TIC phenotype
